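Cells were grown in 96-well plates and exposed to each compound for 48 hours at five concentrations; endpoints were interpolated linearly between bracketing concentrations, or set to the highest concentration if not reached. GI50 marks 50% less growth. TGI is the concentration that stops growth completely.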
Tests used:
Experiment in all cases: NCI-60 cell line screen, 48 h
ACHN renal = system: ACHN renal
HCT-116 colon = system: HCT-116 colon
MALME-3M melanoma = system: MALME-3M melanoma
OVCAR-3 ovarian = system: OVCAR-3 ovarian
TK-10 renal = system: TK-10 renal
MDA-MB-231 breast = system: MDA-MB-231 breast
NCI/ADR-RES ovarian = system: NCI/ADR-RES ovarian
HOP-62 NSCLC = system: HOP-62 NSCLC
SNB-19 CNS = system: SNB-19 CNS
BT-549 breast = system: BT-549 breast

Row | SMILES | TGI (ACHN renal) [µM] | TGI (HCT-116 colon) [µM] | TGI (MALME-3M melanoma) [µM] | TGI (OVCAR-3 ovarian) [µM] | TGI (TK-10 renal) [µM] | GI50 (MDA-MB-231 breast) [µM] | TGI (MDA-MB-231 breast) [µM] | GI50 (NCI/ADR-RES ovarian) [µM] | TGI (NCI/ADR-RES ovarian) [µM] | GI50 (ACHN renal) [µM] | GI50 (HCT-116 colon) [µM] | GI50 (MALME-3M melanoma) [µM] | GI50 (HOP-62 NSCLC) [µM] | TGI (HOP-62 NSCLC) [µM] | GI50 (OVCAR-3 ovarian) [µM] | GI50 (TK-10 renal) [µM] | GI50 (SNB-19 CNS) [µM] | TGI (SNB-19 CNS) [µM] | GI50 (BT-549 breast) [µM] | TGI (BT-549 breast) [µM]
1 | CSc1c(S(C)=O)[nH]c2cc(Br)cc(Br)c12 (stereo not given) | 88.2 | 32.7 | 48.8 | 45 | 78.1 |  |  |  |  |  |  |  |  |  |  |  |  |  |  | 
2 | Fc1c[c-]c(-c2ccccn2)c(F)c1.[CH3-].[Pt+2].c1ccc([PH+](c2ccccc2)c2ccccn2)cc1 | 2.49 | 2.8 | 2.81 | 2.88 | 12.9 | 1.61 | 3.31 | 1.81 | 5.35 | 1.2 | 1.3 | 1.35 | 4.16 | 44.2 | 1.44 | 3.59 | 3.25 | > 100 |  | 
3 | COc1cccc2c1nc1cccc(OC)c1[n+]2[O-] | 9.96 | 16.9 | 30.3 | 39.2 | 47.6 | 16.4 | 41.4 | 5.51 | 28.4 | 2.2 | 3.64 | 12.8 | 4.14 | 17.8 | 15.7 | 16.3 |  |  | 5.94 | 28.2
4 | C=CCC(N[C@@H](CO)c1ccccc1)c1ccccn1 (stereo not given in full) | > 100 | > 100 | > 100 | > 100 | > 100 | > 100 | > 100 | > 100 | > 100 | > 100 | > 100 | > 100 | > 100 | > 100 | > 100 | > 100 |  |  | > 100 | > 100
5 | COc1cc([N+](=O)[O-])c(S(=O)(=O)O)cc1N | > 100 | > 100 |  | > 100 | > 100 |  | > 100 |  | > 100 |  |  |  |  | > 100 |  |  |  | > 100 |  | > 100
6 | CCN1CCC2(CC1)NC(=O)c1c(c3ccc(Cl)c(Cl)c3n1C)C2C#N (stereo not given) | 12.8 | 4.29 | 3.37 |  | 5.38 | 1.97 | 4.43 | 3.6 | 13.6 | 2.92 | 2.49 | 1.76 | 1.61 | 3.13 |  | 1.8 | 7.1 | 24.5 | 3.61 | 15.2
7 | CN(C)C(=S)/N=c1\ssc(=S)n1-c1ccccc1 | 32.1 | 27.2 | 31 |  | 31.4 |  |  |  |  |  |  |  |  | 74.2 |  |  |  | > 100 |  | 
8 | NCCn1ccc(NC(c2ccccc2)(c2ccccc2)c2ccccc2)nc1=O | > 100 | 35.5 | 33.4 | 52.6 | 85 |  |  |  |  |  |  |  |  | 73.8 |  |  |  |  |  | 
9 | CCCCCCCCCCCCC/C=C1\C[C@H](O)COC1=O | 29.4 | 31.2 | 35.5 | 31.7 | 31.8 |  |  |  |  |  |  |  |  | 31.8 |  |  |  | 32.9 |  | 

From PubChem BioAssay (NCI)
